Assay results taken from publication PMC2864300, “Regulation of NOXO1 Activity through Reversible Interactions with p22^phox and NOXA1” (PLoS ONE, 2010).
Values belong to the compound of their own block, whether it stands above or below them. Where a SMILES comes first, the peptide text is derived from it. Where no end group is shown, it is not given here.

How the values were obtained:
[1] = test system: interaction between NOXO1 and p22^phox; conditions: cited from earlier work
From the text: In this study we provide evidence that the assembly of the NOX1 oxidase complex can be regulated through reversible protein-protein interactions. […] However, the inhibitory effect of the C-terminal tail is less pronounced in NOXO1 than in the homologous p47^phox subunit of the phagocytic oxidase, and may explain why the NOX1 system is capable of producing low levels of superoxide, in a constitutive ...

[2] = test system: mouse proteins (NOX1 system); conditions: ref [32]–[34]; cited from earlier work
[3] = test system: human NOX1; conditions: ref [32]–[34]; cited from earlier work
[4] = biological target: T1, tandem SH3 domains of human NOXO1 (Homo sapiens, UniProt Q8NFA2); test: ITC, binding to human NOXO1 tandem SH3 domains; conditions: 18°C; for Kd: pH 7.4, titrated against tandem SH3 domains
T1 construct: was titrated against the tandem SH3 domains as well as against the individual SH3A and SH3B domains; GST (N, cleaved yes); made in house; host or cells: Escherichia coli BL21 STAR
T1 sequence (Q8NFA2 157-290 isoform Q8NFA2-4): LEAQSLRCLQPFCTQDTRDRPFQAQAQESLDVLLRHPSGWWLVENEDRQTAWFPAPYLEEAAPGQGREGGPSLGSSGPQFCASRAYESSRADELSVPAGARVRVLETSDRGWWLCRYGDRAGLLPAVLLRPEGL
Description: (§1) Complex formation between NOXO1, NOXA1 and p22^phox fragments or peptides were measured by isothermal titration calorimetry using a MicroCal VP-ITC calorimeter (MicroCal Inc., Northampton, USA). All proteins were dialysed against ITC buffer (150 mM NaCl, 1 mM DTT and 50 mM HEPES, pH 7.4) and performed at 18°C. All peptides were dissolved in ITC buffer. Typically, 20–40 µM of protein in the cell was titrated by stepwise injections of a total of 200–300 µM of the ligand. Heats of dilution were determined by titrating protein or peptide into ITC buffer and subtracted from the raw ITC data prior to analysis with the software, Origin version 7.0, assuming a single-site binding model. Data were averaged over three to five experiments.

[5] = biological target: T2, human NOXA1 SH3 (Homo sapiens, UniProt Q86UR1); test: ITC, binding to human NOXA1 SH3; conditions: 18°C, 150 mM NaCl, 1 mM DTT, 50 mM HEPES, pH 7.4, peptide in syringe, human NOXA1 SH3 in cell, averaged over three to five experiments, read-out: K (Kd)
T2 construct: GST (N, cleaved yes); made in house; host or cells: Escherichia coli BL21 STAR
T2 sequence (Q86UR1 399-458 limits assumed): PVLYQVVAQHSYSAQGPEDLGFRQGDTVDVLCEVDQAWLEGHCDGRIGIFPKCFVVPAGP
Description: as §1

Compound: CCCCC/C=C\C/C=C\C/C=C\C/C=C\CCCC(=O)O [arachidonic acid]
effect on interaction between NOXO1 and p22^phox [1]: could increase the interaction between NOXO1 and p22^phox

Compound: CCCCCCCCCCCCCC(=O)O[C@@H]1[C@@H](C)[C@@]2(O)[C@@H](C=C(CO)C[C@]3(O)C(=O)C(C)=C[C@@H]23)[C@@H]2C(C)(C)[C@]12OC(C)=O [PMA]
superoxide production with the mouse proteins [2]: a similar increase could not be observed with the mouse proteins | superoxide production by human NOX1 [3]: increased

Compound: TAPPPTVPTRPS [PeptideA-short]
Kd [5]: > 70 µM | Kd [4]: ~50 µM

Continued, values first:

binding to the tandem SH3 domains (qualitative) ([4]; pH 7.4, data not shown): no binding was detected
Compound: ERRPRRQGRPRG [peptide corresponding to basic region, residues 347–359, of C-terminal tail of human NOXO1]

Kd [4]: ~50 µM
Compound: CC[C@H](C)[C@H](NC(=O)[C@H](C)NC(=O)CNC(=O)[C@@H]1CCCN1C(=O)[C@H](CO)NC(=O)[C@@H]1CCCN1C(=O)[C@H](CCCNC(=N)N)NC(=O)[C@@H](NC(=O)[C@@H]1CCCN1C(=O)[C@@H](NC(=O)[C@@H](NC(=O)[C@@H]1CCCN1C(=O)[C@@H]1CCCN1C(=O)[C@@H]1CCCN1C(=O)[C@H](C)NC(=O)[C@@H](N)[C@@H](C)O)[C@@H](C)O)C(C)C)[C@@H](C)O)C(=O)N[C@@H](CCC(N)=O)C(=O)N[C@@H](CO)C(=O)N[C@@H](CCCNC(=N)N)C(=O)N[C@@H](CS)C(=O)N[C@@H](CS)C(=O)N[C@H](C(=O)N[C@H](C(=O)N[C@H](C(=O)N[C@@H](CCCNC(=N)N)C(=O)N[C@@H](CCCNC(=N)N)C(=O)N[C@@H](C)C(=O)N[C@@H](CC(C)C)C(=O)N[C@@H](CCC(=O)O)C(=O)O)[C@@H](C)O)C(C)C)[C@@H](C)O [PeptideA] (H-TAPPPTVPTRPSPGAIQSRCCTVTRRALE-OH)
